The text below walks through data of US20090149417A1, “Methods and compositions for the treatment of cancer using benzopyrone-type PARP inhibitors” (priority 2007, published 2009).

For experiment [1], the system named is Colo375FG metastatic pancreatic adenocarcinoma cells. Briefly: TUNEL apoptosis assay (flow cytometry). Type of experiment: cell-based, human. Particulars: for Dead cells TUNEL (%): Compound IIIc 0 mM. The method, then:
Cells are labeled for apoptosis with the “In Situ Cell Death Detection Kit, Fluorescein” (Roche Diagnostics Corporation, Roche Applied Science, Indianapolis, Ind.). Briefly, fixed cells are centrifuged and washed once in phosphate-buffered saline (PBS) containing 1% bovine serum albumin (BSA), then resuspended in 2 ml permeabilization buffer (0.1% Triton X-100 and 0.1% sodium citrate in PBS) for 25 min at room temperature and washed twice in 0.2 ml PBS/1% BSA. The cells are resuspended in 50 μl TUNEL reaction mixture (TdT enzyme and labeling solution) and incubated for 60 min at 37° C. in a humidified dark atmosphere in an incubator. The labeled cells are washed once in PBS/1% BSA, then resuspended in 0.5 ml ice-cold PBS containing 1 μg/ml 4′,6-diamidino-2-phenylindole (DAPI) for at least 30 min. All cell samples are analyzed with a BD LSR II (BD Biosciences, San Jose, Calif.).
The cells are labeled for apoptosis with the “In Situ Cell Death Detection Kit, Fluorescein” (Roche Diagnostics Corporation, Roche Applied Science, Indianapolis, Ind.). Briefly, fixed cells are centrifuged and washed once in phosphate-buffered saline (PBS) containing 1% bovine serum albumin (BSA), then resuspended in 2 ml permeabilization buffer (0.1% Triton X-100 and 0.1% sodium citrate in PBS) for 25 minutes at room temperature and washed twice in 0.2 ml PBS/1% BSA. The cells are resuspended in 50 μl TUNEL reaction mixture (TdT enzyme and labeling solution) and incubated for 60 min at 37° C. in a humidified dark atmosphere in an incubator. The labeled cells are washed once in PBS/1% BSA, then resuspended in 0.5 ml ice-cold PBS containing 1 μg/ml 4,6-diamidino-2-phenylindole (DAPI) for at least 30 min. All cell samples are analyzed with a BD LSR II (BD Biosciences, San Jose, Calif.).

In another experiment the test system is PARP1+/+A16 fibroblasts. Nature of the experiment: Proliferation by BrdU incorporation. The following applies: wildtype fibroblasts; single agent. Type of experiment: cell-based. The method, then:
(§1) Proliferation of various tumor cell lines including uterine cancer Hela cells, lung carcinoma A549 cells, PARP1+/+A16 and PARP1−/− A12 fibroblasts, and several human pancreatic tumor cell lines, COLO357FG, MiaPaCa-2, AsPC-1, L3.6pl, and Panc28, is measured by BrdU incorporation. In some experiments, tumor cell proliferation is measured after 96 hours. The concentration of IIIg is titrated to show the effect of IIIg on tumor cell growth in vitro.
(§2) BrdU assay is well known in the art. Briefly, cells are cultured in the presence of the respective test substances in an appropriate 96-well MP at 37° C. for a certain period of time (1 to 5 days, depending on the individual assay system). Subsequently, BrdU is added to the cells and the cells are reincubated (usually 2-24 h). During this labeling period, the pyrimidine analogue BrdU is incorporated in place of thymidine into the DNA of proliferating cells. After removing the culture medium the cells are fixed and the DNA is denatured in one step by adding FixDenat (the denaturation of the DNA is necessary to improve the accessibility of the incorporated BrdU for detection by the antibody). The anti-BrdU-POD antibody is added and the antibody binds to the BrdU incorporated in newly synthesized, cellular DNA. The immune complexes are detected by the subsequent substrate reaction via chemiluminescent detection (based on Cell Proliferation ELISA, BrdU Chemiluminescence Protocol from Roche).
(§3) Experiments and analyses are performed according to Shaw G and Prowse DM, “Inhibition of androgen-independent prostate cancer cell growth is enhanced by combination therapy targeting Hedgehog and ErbB signaling” Cancer Cell Int. 2008 Mar. 18; 8:3.
A general note: Uptake of a labelled nucleoside into DNA is a usual measure of proliferation.

Experiment [2] concerns human pancreatic tumor cell lines, COLO357FG, MiaPaCa-2, AsPC-1, L3.6pl, and Panc28. Briefly: Proliferation by BrdU incorporation. The format is cell-based. Particulars: single agent. As for the experimental part:
as §1, §2, §3

In another experiment the test system is PARP1−/− A12 fibroblasts. Nature of the experiment: Proliferation by BrdU incorporation. The following applies: PARP-1−/− fibroblasts; single agent. The format is cell-based. As for the experimental part:
as §1, §2, §3

Structures are written as SMILES. Where “and” joins values, the source holds several entries; their conditions need not be identical. Identical values can stand only once.

Take `O=c1ccc2c(I)c([N+](=O)[O-])ccc2o1` [IIIg, 5-iodo-6-nitro-benzopyrone]: the “TUNEL (%)” value in experiment [1] (IIIg 2.5 μM, OxaliPt 0 μM) is 3.3% and 2.5%; in experiment [1] (combination: IIIg 2.5 μM + OxaliPt 10 μM), 19%; in experiment [1] (combination: IIIg 2.5 μM + OxaliPt 20 μM), 42%; in experiment [1] (combination: IIIg 12.5 μM + OxaliPt 10 μM), 57.3%; in experiment [1] (combination: IIIg 12.5 μM + OxaliPt 20 μM), 85.7%; in experiment [1] (combination: IIIg 25 μM + OxaliPt 10 μM) it was 89.5%. The “TUNEL (%)” value in experiment [1] (combination: IIIg 25 μM + OxaliPt 20 μM) is listed as 94.2%. Further, the Cell growth result in the experiment with PARP1+/+A16 fibroblasts is recorded as “selectively inhibits the growth of wildtype”; in experiment [2], “significantly inhibits cell growth”; in the experiment on PARP1−/− A12 fibroblasts it was “not PARP-1−/− fibroblasts”.
On to `O=C1[O][Pt]2([NH][C@@H]3CCCC[C@H]3[NH]2)[O]C1=O` [OxaliPt, oxaliplatin, reference compound], for which the “Dead cells TUNEL (%)” value in experiment [1] (OxaliPt 10 mM) amounted to 21.0%; in experiment [1] (OxaliPt 20 mM), 48.3%. In addition, the “TUNEL (%)” value came to 21% in experiment [1] (IIIg 0 μM, OxaliPt 10 μM) and 48.3% in experiment [1] (IIIg 0 μM, OxaliPt 20 μM).
